In patent US11318141B2, “Methods and compositions related to STK1-targeted small molecules as antibiotic resistance breakers” (Ohio State Innovation Foundation, priority 2017, dated 2022):

Key:
S. aureus MW2 wild-type = assay: Serial passage at suboptimal dose (10 generations), stk1 PCR and DNA sequencing; assay type: cell-based, Staphylococcus aureus; conditions: 25 μM Inh2-B1 alone or with 3 μM Ceftriaxone or 3 μM Cefotaxime, 10 generations
Description: Since the STK1 is not essential for bacterial survival and its absence results in retardation of growth, an end-point bactericidal assay was done, employing the Checkerboard titration method followed by a time-to-kill assay using the broth dilution method. The 96-well plate-based checkerboard titration assays were performed using the fixed number of CFUs of MW2 strain, and the survival of the bacteria was measured on solid agar plates as an end-point result. […] The cut-off value to designate clinical isolates of S. aureus for antibiotics, including Ceftriaxone (TX) and Cefotaxime (CT) as susceptible, is less than 4 μg/ml (i.e., <4.8 μM of TX, and <7 μM of CT). […] CFU counts of MW2-WT grown in the presence of various concentrations of Inh2-B1 were examined over a period of 16 h. […] Similarly, it was also determined CFU counts of MW2-WT and MW2ΔSTK1 strains each grown in the absence or the presence of 50 μM of Inh2-B1 and 1.5 μM Ceftriaxone (1 μg/ml) or […] Cefotaxime (1 μg/ml) for 16 h employing the broth dilution method. […] Further, to address whether MW2 or STK1 could become refractory to a potential combined therapy, the S. aureus MW2 wild-type strain was grown in the presence of suboptimal dose of Inh2-B1 alone and combination with Ceftriaxone and Cefotaxime (25 μM Inh2-B1 and 3 μM of Ceftriaxone or 3 μM Cefotaxime) for consecutive 10 generations.

BEAS-2B cells = assay: LDH release cytotoxicity assay; assay type: cell-based, human; conditions: 1.56-100 μM, 24 h
Description: (§1) Various concentrations (1.56-100 μM) of the small molecule compounds Inh2-B1 were tested for their cytotoxicity by incubating them for 24 h in the cell lines mentioned above. The cytotoxicity of compounds was determined by measuring the activity of lactate dehydrogenase (LDH) released from the damaged cells during incubation. The LDH assay was performed in triplicate wells. At the end of incubation, the plates were lightly centrifuged, and the culture supernatants were examined for the presence of LDH activity using Cytotoxicity Detection Kit (Promega) per the manufacturer's instructions. LDH activity was detected spectrophotometrically (Molecular device, 490 nm) and normalized to the total LDH activity (100%) in cell lysate of the untreated cells. Background value obtained with untreated culture supernatant was subtracted before data evaluation.

Detroit 562 cells = assay: LDH release cytotoxicity assay; assay type: cell-based, human; conditions: 1.56-100 μM, 24 h
Description: as §1

[1] = tested on: cell wall hydrolase genes in S. aureus MW2-WT; assay: qRT-PCR mRNA expression of cell wall hydrolase genes; assay type: cell-based, Staphylococcus aureus; conditions: treated MW2-WT vs untreated
Description: The late log phase-grown S. aureus strains MW2 wild-type, and isogenic ΔSTK1 and ΔSTP1 mutant strains, as well as S. aureus MW2 strain treated with 25 μM Inh2-B1 for 4 h, were subjected to lysostaphin treatment to obtain whole cell lysate. Total RNA from the resulting lysate was first extracted by TRIZOL™ (Invitrogen/Thermo) and treated with RNase-free DNaseI. High-quality total RNA (RIN>7.0, and 260/280 and 260/230 ratios >1.8) was then extracted by using RNA purification kit (Norgen, Canada) per manufacturer's instructions and confirmed by an Agilent 2100 Bioanalyzer (Agilent Technologies, Palo Alto, Calif.). The first-strand cDNA from the total RNA was generated, and relative mRNA concentration was quantitated using SYBR Green qRT-PCR master mix and specific primers, using a Light Cycler® 480 real-time PCR machine (Table 2). The results obtained for all samples (three biological replicates each in triplicates) were normalized to corresponding values of 16S rRNA. All results including relative fold-changes in the mRNA expression (mutant vs. wild-type or treated vs. nontreated) for individual genes were analyzed using Exor4 software (Roche Applied Science). Changes in expression ratios by more than 2-fold (up- or down-regulation) were considered as significant.

[2] = Stability in serum and body fluid; assay type: in vitro ADME
[3] = tested on: S. aureus MW2 wild-type biofilms; assay: Biofilm formation, crystal violet stain method; assay type: cell-based, Staphylococcus aureus; conditions: 25 μM
Description: (§2) The ability to form biofilms by S. aureus MW2 strain in the absence and presence of Inh2-B1 was determined using the crystal violet stain method. Briefly, the assay was carried out in 24-well tissue culture plates in a final volume of 500 μl of TSB broth with or without Inh2-B1 (25 μM). The culture plates were then seeded with 1:1000 dilution of the freshly grown S. aureus cultures to late log phase (O.D600=0.8) and further incubated for 48 h. At the end of incubation, the culture medium from each well was carefully removed and stained with 1% Crystal violet for 5 min. The unbound stain was then removed by repeated washings with distilled water and air dried. The stained biofilms were then extracted and dissolved in 500 μl 100% of isopropanol. Aliquots of fully suspended biofilms (100 μl/well) in isopropanol from each well were spectrophotometrically (λ=550 nm) analyzed using a microtiter plate reader (Molecular Devices). The test samples were analyzed after subtracting the background values obtained from wells containing an only medium. All results were obtained with three independent cultures each in three wells. In another set of experiments. Inh2-B1 (25 μM) was added to the 48 h-grown established biofilms of S. aureus MW2 to determine the impact of Inh2-B1 on the preformed biofilms and its ability to disrupt or further formation of biofilms. For this, old medium was carefully removed to allow the minimal loss of the loosely attached apical part of the preformed biofilms and replace with 2 ml of fresh TSB medium with or without 25 μM Inh2-B1 inhibitor and incubated further for 48 h at 37° C. Subsequently, the biofilm formation or its disruption was quantitatively estimated as described above and statistically evaluated.

[4] = tested on: S. aureus MW2ΔSTP1 biofilms; assay: Biofilm formation, crystal violet stain method; assay type: cell-based, Staphylococcus aureus; conditions: 25 μM
Description: as §2

Compound: COC(=O)c1ccc2c(=O)[nH]c3c(C(=O)Nc4ccccc4)sc(=S)n3c2c1 [Inh2-B1, Methyl 5-oxo-3-(phenylcarbamoyl)-1-thioxo-4,5dihydro[1,3]thiazolo[3,4-a]quinazoline-8-carboxylate]
- changes in the stk1 gene of the passaged strain (S. aureus MW2 wild-type): did not show any changes in the stk1 gene
- cytotoxicity (LDH release) (BEAS-2B cells): ~15%
- lysis (LDH release) (Detroit 562 cells): less than 5%
- expression of cell wall hydrolase-encoding genes [1]: down-regulation of cell wall hydrolase-encoding genes
- stability in the serum and body fluid, such as peritoneal fluid [2]: remain stable
- biofilm formation in the presence of Inh2-B1 ([3]; 48 h): significantly decreased formation of biofilms
- effect on preformed biofilms ([3]; further 48 h): significant reduction in biofilm formation
- biofilm formation in the presence of Inh2-B1 ([4]; 48 h): significantly decreased formation of biofilms
- effect on preformed biofilms ([4]; further 48 h): significant reduction in biofilm formation
